Assay: Inhibition of eIF2alpha (unknown origin) assessed as eIF2alpha phosphorylation by TR-FRET assay

Row | SMILES | IC50
1 | CCc1cc(NC(=O)[C@H](O)c2cc(F)cc(F)c2)ccc1-c1cnc(N)c(C(=O)NC(C)C)c1 | 9 nM
2 | CO[C@@H](C(=O)Nc1ccc(-c2cnc(N)c(C(=O)NC(C)C)c2)c(C)c1)c1ccccc1 | 3340 nM
3 | Cc1cc(NC(=O)Cc2ccccc2)ccc1-c1cnc(N)c(C(=O)NC(C)C)c1 | 307 nM
4 | Cc1cc(NC(=O)[C@](C)(O)c2ccccc2)ccc1-c1cnc(N)c(C(=O)NC(C)C)c1 | 2130 nM
5 | Cc1cc(NC(=O)[C@H](O)c2cccc(Cl)c2)ccc1-c1cnc(N)c(C(=O)NC(C)C)c1 | 40 nM
6 | Cc1cc(NC(=O)Oc2ccccc2)ccc1-c1cnc(N)c(C(=O)NC(C)C)c1 | > 10000 nM
7 | Cc1cc(NC(=O)[C@H](O)c2cc(F)cc(F)c2)ccc1-c1cc(C(=O)NC(C)C)c(N)nn1 | 7650 nM
8 | Cc1cc(NC(=O)[C@H](O)c2cc(F)cc(F)c2)ccc1-c1ccc(N)nc1 | > 10000 nM
9 | Cc1cccc([C@@H](O)C(=O)Nc2ccc(-c3cnc(N)c(C(=O)NC(C)C)c3)c(C)c2)c1 | 54 nM
10 | Cc1cc(NC(=O)[C@H](O)c2cc(F)cc(F)c2)ccc1-c1cnc(N)c(C(=O)NC(C)C)n1 | 42 nM
11 | Cc1cc(NC(=O)[C@H](O)c2ccccc2)ccc1-c1cnc(N)c(C(=O)NC(C)C)c1 | 198 nM
12 | CCc1cccc([C@@H](O)C(=O)Nc2ccc(-c3cnc(N)c(C(=O)NC(C)C)c3)c(C)c2)c1 | 18 nM
13 | CC(C)NC(=O)c1cc(-c2ccc(NC(=O)[C@H](O)c3cc(F)cc(F)c3)cc2)cnc1N | 313 nM
14 | Cc1cc(NC(=O)[C@@](C)(O)c2ccccc2)ccc1-c1cnc(N)c(C(=O)NC(C)C)c1 | 3020 nM
15 | Cc1cc(NC(=O)Nc2ccccc2)ccc1-c1cnc(N)c(C(=O)NC(C)C)c1 | 2360 nM
16 | Cc1cc(NC(=O)[C@H](O)c2cc(F)cc(F)c2)ccc1-c1cncc(C(=O)NC(C)C)c1 | 181 nM
17 | CNC(=O)c1nc(-c2ccc(NC(=O)[C@H](O)c3cc(F)cc(F)c3)cc2C)cnc1N | 40 nM

The remaining lines, values ahead:

Row | IC50 | SMILES
18 | 638 nM | Cc1cc(NC(=O)[C@H](O)c2cc(F)cc(F)c2)ccc1-c1cnc(C)c(C(=O)NC(C)C)c1
19 | 45 nM | CCNC(=O)c1cc(-c2ccc(NC(=O)[C@H](O)c3cc(F)cc(F)c3)cc2C)cnc1N
20 | 23 nM | CC(C)NC(=O)c1cc(-c2ccc(NC(=O)[C@H](O)c3cc(F)cc(F)c3)cc2Cl)cnc1N
21 | 72 nM | CC(C)NC(=O)c1cc(-c2ccc(NC(=O)[C@H](O)c3cc(F)cc(F)c3)cc2F)cnc1N
22 | 49 nM | Cc1cc(NC(=O)[C@H](O)c2cc(F)cc(F)c2)ccc1-c1cnc(N)c(C(=O)OC(C)C)c1
23 | 2220 nM | Cc1cc(NC(=O)[C@H](O)c2cc(F)cc(F)c2)ccc1-c1cnc(N)c(C(=O)N(C)C)c1
24 | 114 nM | Cc1cc(NC(=O)[C@H](O)c2cc(F)cc(F)c2)ccc1-c1cnc(N)c(C(=O)NC(C)(C)C)c1
25 | 187 nM | Cc1cc(NC(=O)[C@@H](O)c2cc(F)cc(F)c2)ccc1-c1cnc(N)c(C(=O)NC(C)C)c1
26 | 58 nM | CNC(=O)c1cc(-c2ccc(NC(=O)[C@H](O)c3cc(F)cc(F)c3)cc2C)cnc1N
27 | 27 nM | Cc1cc(NC(=O)[C@H](O)c2cc(F)cc(F)c2)ccc1-c1cnc(N)c(C(=O)NC2CC2)c1
28 | 33 nM | Cc1cc(NC(=O)[C@H](O)c2cc(F)cc(F)c2)ccc1-c1cnc(N)c(C(=O)NC(C)C)c1
29 | 4030 nM | CNc1ncc(-c2ccc(NC(=O)[C@H](O)c3cc(F)cc(F)c3)cc2C)cc1C(=O)NC(C)C
30 | 366 nM | COc1cc(NC(=O)[C@H](O)c2cc(F)cc(F)c2)ccc1-c1cnc(N)c(C(=O)NC(C)C)c1

From BindingDB's records for doi:10.1016/j.bmcl.2021.128058 (Hibercell, 2021)
